The source of these data is ChEMBL document CHEMBL3407445, “Benzofuran-derived benzylpyridinium bromides as potent acetylcholinesterase inhibitors” (Eur J Med Chem, 2015).

The target of test [1] is Acetylcholinesterase (Electrophorus electricus, UniProt O42275). In words: Inhibition of electric eel AChE using acetylthiocholine substrate by Ellman's reagent based method. For orientation: Ellman's reagent forms a yellow product with free thiols.
Test [2] addresses Acetylcholinesterase (Electrophorus electricus) (UniProt O42275). The test can be described thus: Potency index, ratio of IC50 for donepezil to IC50 for compound against electric eel AChE using acetylthiocholine substrate by Ellman's reagent based method.

Chain of Acetylcholinesterase (O42275 whole entry): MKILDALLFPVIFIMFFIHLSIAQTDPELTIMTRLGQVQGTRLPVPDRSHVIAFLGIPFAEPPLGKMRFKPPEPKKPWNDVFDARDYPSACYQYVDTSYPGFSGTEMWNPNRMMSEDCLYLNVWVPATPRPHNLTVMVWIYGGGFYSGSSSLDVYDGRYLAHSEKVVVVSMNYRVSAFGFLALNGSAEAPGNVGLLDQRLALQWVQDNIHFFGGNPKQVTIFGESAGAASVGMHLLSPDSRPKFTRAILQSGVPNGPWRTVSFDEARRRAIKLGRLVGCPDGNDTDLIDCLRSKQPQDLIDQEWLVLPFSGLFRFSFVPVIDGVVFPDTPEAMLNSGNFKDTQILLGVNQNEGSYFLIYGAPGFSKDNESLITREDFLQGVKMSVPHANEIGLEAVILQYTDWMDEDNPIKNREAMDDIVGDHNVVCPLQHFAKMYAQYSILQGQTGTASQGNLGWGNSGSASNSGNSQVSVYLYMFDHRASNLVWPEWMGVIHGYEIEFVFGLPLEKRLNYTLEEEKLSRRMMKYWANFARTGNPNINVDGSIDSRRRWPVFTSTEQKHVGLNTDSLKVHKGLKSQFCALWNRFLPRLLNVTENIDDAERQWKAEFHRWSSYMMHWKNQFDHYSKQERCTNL
Chain of Acetylcholinesterase (Electrophorus electricus) (O42275 24-633 limits assumed): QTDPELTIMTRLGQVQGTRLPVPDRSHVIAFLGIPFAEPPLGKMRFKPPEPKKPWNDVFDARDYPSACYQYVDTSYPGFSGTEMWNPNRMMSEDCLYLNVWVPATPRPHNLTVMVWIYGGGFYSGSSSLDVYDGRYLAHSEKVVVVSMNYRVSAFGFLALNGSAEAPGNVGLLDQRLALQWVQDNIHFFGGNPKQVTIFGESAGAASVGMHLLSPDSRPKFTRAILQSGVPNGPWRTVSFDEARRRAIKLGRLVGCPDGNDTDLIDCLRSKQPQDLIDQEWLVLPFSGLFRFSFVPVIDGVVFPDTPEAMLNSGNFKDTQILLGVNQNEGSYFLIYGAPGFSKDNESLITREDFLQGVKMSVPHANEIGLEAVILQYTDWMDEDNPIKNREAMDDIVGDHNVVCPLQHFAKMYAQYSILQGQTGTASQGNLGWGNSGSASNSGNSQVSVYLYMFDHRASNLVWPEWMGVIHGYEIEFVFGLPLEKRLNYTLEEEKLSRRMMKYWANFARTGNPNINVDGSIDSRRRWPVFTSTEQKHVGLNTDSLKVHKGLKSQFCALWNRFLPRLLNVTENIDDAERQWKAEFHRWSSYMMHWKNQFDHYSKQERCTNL

Take `O=[N+]([O-])c1ccc(C[n+]2ccc(-c3cc4cc(Br)ccc4o3)cc2)cc1`: the IC50 (usually the concentration at which inhibition is half-maximal) in test [1] came out at 8.1 nM.

The compound `Cc1ccccc1C[n+]1ccc(-c2cc3ccccc3o2)cc1` gave an IC50 in test [1] of 6.8 nM. This IC50 and that of the compound before are within 1.5-fold of each other.

Take `COc1cccc2cc(-c3cc[n+](Cc4ccccc4)cc3)oc12`: in test [1], inhibition was half-maximal at 26.5 nM (IC50).

For `O=[N+]([O-])c1ccc(C[n+]2ccc(-c3cc4ccccc4o3)cc2)cc1`, the midpoint of inhibition in test [1], the IC50, lay at 5.8 nM.

Compound `O=[N+]([O-])c1ccccc1C[n+]1ccc(-c2cc3ccccc3o2)cc1` showed an IC50 in test [1] of 4.9 nM. This IC50 and that of the compound before are within 1.5-fold of each other.

With `COc1cccc2cc(-c3cc[n+](Cc4cccc(F)c4)cc3)oc12`, the IC50 in test [1] amounted to 18.9 nM.

On to `Fc1cccc(C[n+]2ccc(-c3cc4cc(Br)ccc4o3)cc2)c1`, for which the IC50 in test [1] turned out to be 9.6 nM.

As for `COc1cccc2cc(-c3cc[n+](Cc4ccc([N+](=O)[O-])cc4)cc3)oc12`, half-maximal inhibition in test [1] (IC50) was put at 10.6 nM.

On to `Brc1ccc2oc(-c3cc[n+](Cc4ccccc4)cc3)cc2c1`, for which, in test [1], the midpoint of inhibition, the IC50, lay at 13.5 nM.

In test [1], `COc1cccc2cc(-c3cc[n+](Cc4ccc(Br)cc4)cc3)oc12` gave a half-maximal inhibitory concentration (IC50) of 29.5 nM.

`Cc1cc(C)cc(C[n+]2ccc(-c3cc4ccccc4o3)cc2)c1` displayed an IC50 in test [1] of 4.1 nM. Further, the Ratio IC50 in test [2] stood at 7.

In test [1], `Fc1ccc(C[n+]2ccc(-c3cc4cc(Br)ccc4o3)cc2)cc1` registered an IC50 of 8.7 nM.

In test [1], `Brc1ccc(C[n+]2ccc(-c3cc4ccccc4o3)cc2)cc1` showed an IC50 of 16 nM.

Compound `Brc1ccc(C[n+]2ccc(-c3cc4cc(Br)ccc4o3)cc2)cc1` had a concentration for half-maximal inhibition (IC50) in test [1] of 31.5 nM.

The compound `COc1cccc2cc(-c3cc[n+](Cc4cccc(Br)c4)cc3)oc12` returned an IC50 in test [1] of 22.4 nM.
